The values that follow come from ChEMBL document CHEMBL4665672, “Developing new hybrid scaffold for urease inhibition based on carbazole-chalcone conjugates: Synthesis, assessment of therapeutic potential and computational docking analysis” (Bioorg Med Chem, 2019).

For one assay, the target named is Urease (Canavalia ensiformis, UniProt P07374). Briefly: Inhibition of jack bean urease assessed as reduction in ammonia production using urea as substrate incubated for 15 mins by indophenol method.
Assay [1] addresses Urease (Canavalia ensiformis) (UniProt P07374). In words: Inhibition of jack bean urease assessed as reduction in ammonia production at 0.5 mM using urea as substrate incubated for 15 mins by indophenol method.

Chain of Urease (Canavalia ensiformis) (P07374 whole entry, looked up): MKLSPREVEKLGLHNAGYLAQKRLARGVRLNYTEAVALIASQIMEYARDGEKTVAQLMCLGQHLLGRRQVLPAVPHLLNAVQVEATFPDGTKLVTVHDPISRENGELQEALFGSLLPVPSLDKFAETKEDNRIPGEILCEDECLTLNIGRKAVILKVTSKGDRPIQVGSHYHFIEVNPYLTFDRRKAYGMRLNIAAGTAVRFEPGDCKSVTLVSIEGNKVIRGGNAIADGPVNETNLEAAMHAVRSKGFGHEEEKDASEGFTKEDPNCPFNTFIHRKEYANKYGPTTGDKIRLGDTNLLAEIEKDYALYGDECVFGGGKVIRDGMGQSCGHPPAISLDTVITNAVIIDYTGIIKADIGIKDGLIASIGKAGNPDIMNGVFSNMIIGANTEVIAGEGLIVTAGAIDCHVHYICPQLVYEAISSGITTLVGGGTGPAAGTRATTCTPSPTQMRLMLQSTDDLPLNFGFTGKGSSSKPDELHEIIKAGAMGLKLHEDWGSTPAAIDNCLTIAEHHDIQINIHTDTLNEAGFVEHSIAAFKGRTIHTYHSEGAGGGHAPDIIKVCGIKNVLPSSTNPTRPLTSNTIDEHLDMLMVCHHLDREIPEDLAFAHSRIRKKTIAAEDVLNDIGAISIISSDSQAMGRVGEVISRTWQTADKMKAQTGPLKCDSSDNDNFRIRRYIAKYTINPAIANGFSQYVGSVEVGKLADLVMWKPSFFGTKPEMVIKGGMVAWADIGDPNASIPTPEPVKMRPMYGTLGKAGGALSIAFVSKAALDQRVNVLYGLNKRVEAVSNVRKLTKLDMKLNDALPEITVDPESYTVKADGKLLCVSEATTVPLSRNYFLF
Chain of Urease (P07374 whole entry): as the sequence (P07374 whole entry, looked up) above

For orientation: IC50 means the concentration that gives 50% inhibition. The term inhibition denotes the drop in the measured response relative to a control, in per cent. As for `CCCCCCCCn1c2ccc(C(C)=O)cc2c2cc(C(=O)/C=C/c3ccccc3Br)ccc21`, the 50% inhibitory concentration (IC50) at Urease was found to be 8.93 µM. The inhibition in assay [1] was 94.8%.

Consider `CCCCCCCCn1c2ccc(C(C)=O)cc2c2cc(C(=O)/C=C/c3cc(OC)c(OC)c(OC)c3)ccc21`, for which, on Urease, the IC50 stood at 150 µM. In addition, the inhibition in assay [1] was determined as 74.5%.

In the case of `CCCCCCCCn1c2ccc(C(C)=O)cc2c2cc(C(=O)/C=C/c3ccccc3[N+](=O)[O-])ccc21`, the inhibition in assay [1] was 18.6%.

As to `CCCCCCCCn1c2ccc(C(C)=O)cc2c2cc(C(=O)/C=C/c3ccco3)ccc21`, the half-maximal inhibitory concentration (IC50) at Urease worked out at 24.8 µM. Also, the inhibition in assay [1] was 78.7%.

Turning to `CCCCCCCCn1c2ccc(C(C)=O)cc2c2cc(C(=O)/C=C/c3ccccc3Cl)ccc21`, in assay [1], the inhibition stood at 24.5%.

Consider `CCCCCCCCn1c2ccc(C(C)=O)cc2c2cc(C(=O)/C=C/c3ccc(Br)cc3)ccc21`, for which, in assay [1], the inhibition stood at 24.9%.

For the compound `CCCCCCCCn1c2ccc(C(C)=O)cc2c2cc(C(=O)/C=C/c3ccc(N(C)C)cc3)ccc21`, the IC50 on Urease amounted to 149 µM. For the same compound, the inhibition in assay [1] is 22.6%.

As for `CCCCCCCCn1c2ccc(C(C)=O)cc2c2cc(C(=O)/C=C/c3ccc([N+](=O)[O-])cc3)ccc21`, the inhibition in assay [1] was found to be 29.3%.

For the compound `CCCCCCCCn1c2ccc(C(C)=O)cc2c2cc(C(=O)/C=C/c3ccc(Cl)cc3)ccc21`, the IC50 at Urease worked out at 24.7 µM. In addition, in assay [1], the inhibition came out at 95.1%.

On to `CCCCCCCCn1c2ccc(C(C)=O)cc2c2cc(C(=O)/C=C/c3cccc(OC)c3)ccc21`, for which the inhibition in assay [1] came to 7.9%.

Regarding `CCCCCCCCn1c2ccc(C(C)=O)cc2c2cc(C(=O)/C=C/c3cccc(Br)c3)ccc21`, the inhibition in assay [1] is 10.9%.

In the case of `CCCCCCCCn1c2ccc(C(C)=O)cc2c2cc(C(=O)/C=C/c3ccccc3)ccc21`, the inhibition in assay [1] stood at 19.3%.

Consider `CCCCCCCCn1c2ccc(C(C)=O)cc2c2cc(C(=O)/C=C/c3cccc([N+](=O)[O-])c3)ccc21`, for which the IC50 at Urease was 14.2 µM. Also, in assay [1], the inhibition came out at 94.4%.

For the compound `CCCCCCCCn1c2ccc(C(C)=O)cc2c2cc(C(=O)/C=C/c3ccc(OC)cc3)ccc21`, the IC50 on Urease was found to be 6.88 µM. Besides, in assay [1], the inhibition was found to be 98.5%.
